The numbers were not newly measured in patent publication US20050147632A1, “Virally infected plants as a source of insect reppellants/attractents” (priority 2002, published 2005), which cites them from elsewhere.

The structures appear in SMILES notation.

The subject of the data set is neighboring plants. The settings on record: Shulaev et al., Nature 385: 718-721, 1997.

As for `COC(=O)c1ccccc1O` [methyl salicylate], the “induction of plant pathogen resistance” value is “capable of inducing plant pathogen resistance in neighboring plants”.
